Data reported in US12390405B2, “Personal care compositions” (Colgate-Palmolive Company, priority 2021, dated 2025).

What was measured:
[1] = tested on: darkly pigmented human epidermal melanocyte cell model; assay: Melanocyte viability, Alamar Blue; format: cell-based; conditions: melanocytes, after 5 day of treatment, relative to untreated (100%)
Method: In order to evaluate the melanin synthesis inhibition activity of hexylresorcinol, licorice extract and the combination thereof at certain concentrations, In vitro studies are conducted on darkly pigmented human epidermal melanocyte cell model. Darkly pigmented melanocytes cells are placed on 24-well plates. As a positive control, 0.00025% hydroquinone is used. Hexylresorcinol, licorice extract, and hydroquinone solutions are prepared as follows. […] For combination treatment, 2× solutions of hexylresorcinol and licorice extract are mixed. For single treatment, 2× solutions are mixed with the equal volume of media. Test samples are listed in Table 1. • 0.5 ml of each test sample is directly applied to the 24-well plates in triplicates. After 5 day of treatment, melanocyte viability and melanin synthesis are measured. Melanocyte viability is quantified using Alamar Blue solution, which is a nontoxic dye commonly used to assess cell viability.

[2] = tested on: darkly pigmented human epidermal melanocyte cell model; assay: Melanin synthesis in melanocytes (NaOH solubilized melanin, 490 nm), Table 2; format: cell-based; conditions: for Change from untreated (reduction in melanin synthesis) / Melanin Synthesis: after 5 day of treatment; for Melanin Synthesis: relative to untreated (100%); for inhibits melanin synthesis: 5 day
Method: In order to evaluate the melanin synthesis inhibition activity of hexylresorcinol, licorice extract and the combination thereof at certain concentrations, In vitro studies are conducted on darkly pigmented human epidermal melanocyte cell model. Darkly pigmented melanocytes cells are placed on 24-well plates. As a positive control, 0.00025% hydroquinone is used. Hexylresorcinol, licorice extract, and hydroquinone solutions are prepared as follows. […] For combination treatment, 2× solutions of hexylresorcinol and licorice extract are mixed. For single treatment, 2× solutions are mixed with the equal volume of media. Test samples are listed in Table 1. • 0.5 ml of each test sample is directly applied to the 24-well plates in triplicates. After 5 day of treatment, melanocyte viability and melanin synthesis are measured. Melanin synthesis is quantified as follows. Cells are first rinsed with PBS to remove any residual solution and 200 μl NaOH is added to each cell. The plates are shaken for 4 hours to solubilize melanin produced by melanocytes. Solubilized melanin is measured by a spectrometer at 490 nm.

melanocytes = assay: Melanin synthesis inhibition, separate assay, Table 2a; format: cell-based, human; conditions: sample concentrations per Table 2b
Method: In a separate assay melanin synthesis is quantified as follows. Cells are first rinsed with PBS to remove any residual solution and 200 μl NaOH is added to each cell. The plates are shaken for 4 hours to solubilize melanin produced by melanocytes. Solubilized melanin is measured by a spectrometer at 490 nm.

MelanoDerm tissues = assay: Melanin synthesis inhibition in MelanoDerm tissues, separate assay, Table 3a; format: cell-based
Method: In a separate assay, further comparisons are made to 2% kojic acid solution, which is the industry standard for in vitro tissue testing, and market-based product that is hydroquinone free (“MB HQ Free”) but contains kojic acid and other skin brightening ingredients. In total, 31 prototypes are prepared, and 26 of those are assessed in MelanoDerm™ tissues, as described above.

[3] = tested on: human skin (leftover from abdominal plastic surgery); assay: Wound healing on ex vivo human skin
Method: The ability of various molecular weights of hyaluronic acid (HA) are tested to determine their respective properties relative to wound healing and repair.
In this study, human skin (leftover from abdominal plastic surgery) is used. An N=6 skin samples are used for each test condition for statistical comparison. Before treatment with test samples and positive control (Allantoin), a controlled mean wound of about 1 mm length is created on the skin by removing epidermis using a diamond spurr tip. Four microliters of test samples or Allantoin (positive control) are applied on the wound followed by incubation of the tissue for 6 days, and then harvesting of the tissues in order for hematoxylin and eosin staining for morphological analysis. The length of the wounds are measured and values are compared for statistical comparison with untreated Day 6 (self-healing of the skin in absence of any treatment).

| SMILES | Viability [1] | Change from untreated (reduction in melanin synthesis) [2] [%] | Melanin Synthesis [2] | Melanin Synthesis Inhibition (% inhibition vs. untreated) (melanocytes) [%] | further results |
| --- | --- | --- | --- | --- | --- |
| Oc1ccc(O)cc1 [Control, hydroquinone, reference compound] | 92% ± 1% | 24.3 | 75.7% ± 0.9% | 20.6 | – |
| CCCCCCc1ccc(O)cc1O [HR 3, hexylresorcinol] | – | – | – | 9.3 | – |
| CCCCCCc1ccc(O)cc1O [HR 2, hexylresorcinol] | – | – | – | 10.2 | – |
| CCCCCCc1ccc(O)cc1O [HR 4, hexylresorcinol] | – | – | – | 8.8 | – |
| CCCCCCc1ccc(O)cc1O [hexylresorcinol] | – | – | – | – | inhibits melanin synthesis ([2]; 0.0001% hexylresorcinol): 2.1%; inhibits melanin synthesis ([2]; 0.00025% hexylresorcinol): 6.9% |
| CCCCCCc1ccc(O)cc1O [HR 1, hexylresorcinol] | – | – | – | 10.4 | – |
| O=c1cc(CO)occ1O [Kojic Acid, kojic acid] | – | – | – | – | Melanin Synthesis Inhibition Relative to Untreated (% inhibition) (MelanoDerm tissues): 73.51% |
| CCCCCCc1ccc(O)cc1O [HR1, hexylresorcinol] | 95% ± 3% | 6.9 | 93.1% ± 0.7% | – | – |
| CCCCCCc1ccc(O)cc1O [HR2, hexylresorcinol] | 105% ± 8% | 2.1 | 97.9% ± 2.1% | – | – |
| NC(=O)NC1NC(=O)NC1=O (stereo not shown) [Allantoin] | – | – | – | – | Percent (%) Reduction in Wound Width Relative to the Untreated Day 6 ([3]; Day 6): 68%; Mean Wound Width Day 6 ([3]; Day 6 after four microliters applied on wound, N=6, untreated Day 6 874): 280 μm |
